Data from patent publication US6518278B1, “Carcinostatic substance for compatible administration, process of administrating same and process of rapidly inspecting same” (Debio Pharm S.A., priority 1994, dated 2003).
Entries after “also recorded” stand apart in the source; their conditions may differ.

Key:
Type in all cases: cell-based
[1] = system: human leutecyte strain cells (RPMI-8402); experiment: Rapid inspection of carcinostatic substances by counting divided cells with DAPI; conditions: for number of the divided cells compared with the control (FIG. 15): 0.05 μg/ml VCR, 0.05 μg/ml VDS, 20 μg/ml MST-16, with 1 μg/ml DAPI; for division phases of the divided cells (microscope observation): ratio of the divided cells increased after the initiation of the cultivation, no anaphase or telophase cells observed
Description: After over a certain number of cancer cells are prepared by cultivation, a carcinostatic substance is added to the cancer cells. The number of the cells under the cell division at the respective measuring times is counted while continuing the cultivation. […] Accordingly, the effectiveness of the carcinostatic substance can be inspected by counting the number of the cells under the cell division among a certain number (for example, one thousand) of cells several times, comparing the said number with that of the former counting or the previous counting thereof and grasping the progress of the cell division by means of the increase or the decrease of the above comparison. If the DAPI is added with the carcinostatic substance during this procedure, the accurate counting of the number of the divided cells can be performed because the cells under the any phase of the cell division can be recognized. When the number of the divided cells decreases as a result of the comparison between the measurement values, it is judged that the multiplication of the cancer cells is depressed, or the function of the carcinostatic substance is performed. When, on the other hand, the number of the divided cells increases compared with the control, a certain function of the carcinostatic substance is judged to be performed. […] To the respective cultivation liquids were added, together with 1 μg/ml of the DAPI, (1) the control (no addition of the carcinostatic substance), (2) 5 μg/ml of CPT (camptotecin), (3) 10 μg/ml of CPT-11 ([…]), (4) 0.06 μg/ml of ADR (adriamycin), (5) 0.05 μg/ml of DNR (daunomycin), (6) 1 μ/ml of etoposide, (7) 20 μg/ml of MST-16 (sopsoxane), (8) 1 μg/ml of […]), (9) μg/ml of Act-D (actinomycin D), (10) 0.1 μg/ml of mitoxantrone. (11) 20 μg/ml of 5-FU, (12) 10 μg/ml of Ara-C (cytosinarabinoside) (13) 50 μg/ml of hydroxyurea, (14) 2 μg/ml of Aphidicolin, (15) 10 μg/ml of MTX (mesotroxate), (16) 0.05 μg/ml of VCR (vincristin), (17) 0.05 μg/ml of […]). (5) μg/ml of cisplatin, (18) 10 μg/ml of bleomycin, (20)10 μg/ml of MMC (mitomycin C) and (21) 5 μg/ml of cyclophospamide (endoxane). The samples were sampled from the respective cultivation liquids after one hour, […], 24 hours and then every 24 hour from the initiation of the cultivation. The samples were evaluated in accordance with the procedures of the preceding Examples. The results are shown in a graph of FIG. 15.

living cells = experiment: Fluorescence dye bonded to living cells: does the cell stay alive
Source text: As the said fluorescence dye, the above DAPI can be employed. Although the DAPI itself is known, the use for the observation of the cell division while keeping the cells alive is unknown. The present inventors have investigated such fluorescence dye as Hoechst 33258, acridine orange and acridine yellow other than the DAPI.

[2] = system: human leutecyte strain cell (RPMI-8402); experiment: Extinction effect of compatible administration of l-OHP and a compatible agent on tumor cells (compatible efficiency OE); conditions: for Compatible Effects of l-OHP and Compatible Agent, Simultaneous Administration: both added day 1
Description: In the evaluation of the extinction effect of the tumor cells of the respective combinations, a pure extinction effect produced by the compatible administration of the compatible agent and the l-OHP is calculated by subtracting an extinction effect of a control (no carcinostatic substance is employed).
The compatibly administration effect is calculated by employing an Equation (1) described later. When the value (%) calculated by this Equation is between 85 and 115%, the compatible administration effect is evaluated to be an additive effect. When the value is below 85%, it is evaluated to be below the additive effect. When the value is over 115%, it is evaluated to be a synergistic effect, ±15% is a reliability limit or a measurement error.
A target tumor cell was a human leutecyte strain cell (RPMI-8402 of Gibuko K.K.). To these cells was added blood serum of a cow embryo (15%, Gibuko K.K.) to prepare a cell floating liquid of which the number of the cells was 10^6/ml in a cultivation bottle (tradename; Sumiron of Sumitomo Bakelite o., Ltd.) having a volume of 6 ml. A plenty of the cultivation bottles having the cell floating liquid therein were prepared, and the following experiments were conducted while selecting one kind of a compatible agent among cisplatin, 5-FU, irinotecane, adriamycin, etoposide, mitomycin, mitoxantrone, bleomycin, vincristin and vindecin. The time schedules of the controls (no addition of medicines, addition of only the l-OHP and addition of only a compatible agent, and specified in the below items (1) to (4)) and of the compatible administration of the compatible agent and the l-OHP are shown in FIG. 10.
(1) No medicine was added (control).
(2) Only the l-OHP was added at a second day.
(3) A large amount of compatible agents were added at a first day ([…] of the cisplatin, 10 μg/ml of the 5-FU, 0.05 μg/ml of the adriamycin and 1 μg/ml of the etoposide, and for the comparison purpose, 0.05 μg/ml of the vincristin and 0.06 μg/ml of the vindecin). The adding amount of the irinotecano was fixed to 10 μg/ml, and the addition amount of the l-OHP was 5 μg/ml.
(4) A small amount of compatible agents were added at a first day (0.5 μg/ml of the cisplatin, 5 μg/ml of the 5-FU, 0.01 μg/ml of the adriamycin and 0.5 μg/ml of the etoposide, and for the comparison purpose, 0.01 μg/ml of the vincristin and 0.01 μg/ml of the vindecin). The adding amount of the irinotecane was fixed to 10 μg/ml, and the addition amount of the l-OHP was 1 μg/ml.
(5) The l-OHP and a large amount (the same as that of the above item (3) and so forth in the following items) of the compatible agents were simultaneously added at a first day.
(6) The l-OHP and a small amount (the same as that of the above item (4) and so forth in the following items) of the compatible agents were simultaneously added at a first day.
(7) The l-OHP was added at a first day and a large amount of the compatible agents were added at a second day.
(8) The l-OHP was added at a first day and a small amount of the compatible agents were added at a second day.
(9) The l-OHP was added at a first day and a large amount of the compatible agents were added at a third day.
(10) The l-OHP was added at a first day and a small amount of the compatible agents were added at a third day.
(11) The l-OHP was added at a first day and a large amount of the compatible agents were added at a fourth day.
(12) The l-OHP was added at a first day and a small amount of the compatible agents were added at a fourth day.
(13) A large amount of the compatible agents were added at a first day and the l-OHP was added at a second day.
(14) A small amount of the compatible agents were added at a first day and the l-OHP was added at a second day.
(15) A large amount of the compatible agents were added at a first day and the l-OHP was added at a third day.
(16) A small amount of the compatible agents were added at a first day and the l-OHP was added at a third day.

[3] = larger dosage of compatible agent (μg/ml: cisplatin 1, 5-FU 10, irinotecane 10, adriamycin 0.05, vincristin 0.05, vindecin 0.05, etoposide 1, bleomycin 10, mitoxantrone 0.1, mitomycine 1), l-OHP 1 μg/ml (5 μg/ml with irinotecane) added day 1
[4] = larger dosage of compatible agent (μg/ml: cisplatin 1, 5-FU 10, irinotecane 10, adriamycin 0.05, vincristin 0.05, vindecin 0.05, etoposide 1, bleomycin 10, mitoxantrone 0.1, mitomycine 1), l-OHP 1 μg/ml (5 μg/ml with irinotecane)
[5] = larger dosage of compatible agent added day 1 (μg/ml: cisplatin 1, 5-FU 10, irinotecane 10, adriamycin 0.05, vincristin 0.05, vindecin 0.05, etoposide 1, bleomycin 10, mitoxantrone 0.1, mitomycine 1), l-OHP 1 μg/ml (5 μg/ml with irinotecane)
[6] = smaller dosage of compatible agent (μg/ml: cisplatin 0.5, 5-FU 5, irinotecane 10, adriamycin 0.01, vincristin 0.01, vindecin 0.01, etoposide 0.5, bleomycin 1, mitoxantrone 0.05, mitomycine 0.5), l-OHP 1 μg/ml added day 1
[7] = smaller dosage of compatible agent (μg/ml: cisplatin 0.5, 5-FU 5, irinotecane 10, adriamycin 0.01, vincristin 0.01, vindecin 0.01, etoposide 0.5, bleomycin 1, mitoxantrone 0.05, mitomycine 0.5), l-OHP 1 μg/ml
[8] = smaller dosage of compatible agent added day 1 (μg/ml: cisplatin 0.5, 5-FU 5, irinotecane 10, adriamycin 0.01, vincristin 0.01, vindecin 0.01, etoposide 0.5, bleomycin 1, mitoxantrone 0.05, mitomycine 0.5), l-OHP 1 μg/ml

Structure (SMILES): CC(C)COC(=O)OCN1C(=O)CN(CCN2CC(=O)N(COC(=O)OCC(C)C)C(=O)C2)CC1=O [MST-16, sopsoxane]
- number of the divided cells compared with the control (FIG. 15) [1]: increase of the number of the divided cells was momentarily observed
- division phases of the divided cells (microscope observation) [1]: the division prophase and the division metaphase

Structure (SMILES): CN(C)c1ccc2cc3ccc(N(C)C)cc3nc2c1 [acridine orange]
- toxicity of fluorescence dye to the cell (living cells): toxicity is too strong to keep the cell alive

Structure (SMILES): Cc1cc2cc3cc(C)c(N)cc3nc2cc1N [acridine yellow]
- toxicity of fluorescence dye to the cell (living cells): toxicity is too strong to keep the cell alive

Structure (SMILES): CC[C@]1(O)C[C@@H]2CN(CCc3c([nH]c4ccccc34)[C@@](C(=O)OC)(c3cc4c(cc3OC)N(C)[C@H]3[C@@](O)(C(N)=O)[C@H](O)[C@]5(CC)C=CCN6CC[C@]43[C@@H]65)C2)C1 [vindecin]
- number of the divided cells compared with the control (FIG. 15) [1]: remarkable increases of the numbers of the divided cells
- division phases of the divided cells (microscope observation) [1]: the division prophase and the division metaphase
- compatible administration effect with l-OHP, summary in words [2]: the additive effect at best; also recorded: no synergistic effects can be obtained in all the 14 combinations and the additive effects can be obtained in only three combinations
- Compatible Effects of l-OHP and Compatible Agent, Time Lag Administration, Addition Administration of Compatible Agent day 2 [2, 3]: Δ (Δ: Below Additive Effect)
- Compatible Effects of l-OHP and Compatible Agent, Time Lag Administration, Addition Administration of Compatible Agent day 3 [2, 3]: Δ (Δ: Below Additive Effect)
- Compatible Effects of l-OHP and Compatible Agent, Time Lag Administration, Addition Administration of Compatible Agent day 4 [2, 3]: Δ (Δ: Below Additive Effect)
- Compatible Effects of l-OHP and Compatible Agent, Simultaneous Administration [2, 4]: ◯ (◯: Additive Effect)
- Compatible Effects of l-OHP and Compatible Agent, Time Lag Administration, Addition Administration of l-OHP day 2 [2, 5]: ◯ (◯: Additive Effect)
- Compatible Effects of l-OHP and Compatible Agent, Time Lag Administration, Addition Administration of l-OHP day 3 [2, 5]: Δ (Δ: Below Additive Effect)
- Compatible Effects of l-OHP and Compatible Agent, Time Lag Administration, Addition Administration of l-OHP day 4 [2, 5]: Δ (Δ: Below Additive Effect)
- Compatible Effects of l-OHP and Compatible Agent, Time Lag Administration, Addition Administration of Compatible Agent day 2 [2, 6]: Δ (Δ: Below Additive Effect)
- Compatible Effects of l-OHP and Compatible Agent, Time Lag Administration, Addition Administration of Compatible Agent day 3 [2, 6]: Δ (Δ: Below Additive Effect)
- Compatible Effects of l-OHP and Compatible Agent, Time Lag Administration, Addition Administration of Compatible Agent day 4 [2, 6]: ◯ (◯: Additive Effect)
- Compatible Effects of l-OHP and Compatible Agent, Simultaneous Administration [2, 7]: Δ (Δ: Below Additive Effect)
- Compatible Effects of l-OHP and Compatible Agent, Time Lag Administration, Addition Administration of l-OHP day 2 [2, 8]: Δ (Δ: Below Additive Effect)
- Compatible Effects of l-OHP and Compatible Agent, Time Lag Administration, Addition Administration of l-OHP day 3 [2, 8]: Δ (Δ: Below Additive Effect)
- Compatible Effects of l-OHP and Compatible Agent, Time Lag Administration, Addition Administration of l-OHP day 4 [2, 8]: Δ (Δ: Below Additive Effect)

Structure (SMILES): CC[C@]1(O)C[C@H]2CN(CCc3c([nH]c4ccccc34)[C@@](C(=O)OC)(c3cc4c(cc3OC)N(C=O)[C@H]3[C@@](O)(C(=O)OC)[C@H](OC(C)=O)[C@]5(CC)C=CCN6CC[C@]43[C@@H]65)C2)C1 [vincristin]
- number of the divided cells compared with the control (FIG. 15) [1]: remarkable increases of the numbers of the divided cells
- division phases of the divided cells (microscope observation) [1]: the division prophase and the division metaphase
- compatible administration effect with l-OHP, summary in words [2]: the additive effect at best; also recorded: no synergistic effects can be obtained in all the combinations and the additive effects can be obtained in most combinations
- Compatible Effects of l-OHP and Compatible Agent, Time Lag Administration, Addition Administration of Compatible Agent day 2 [2, 3]: Δ (Δ: Below Additive Effect)
- Compatible Effects of l-OHP and Compatible Agent, Time Lag Administration, Addition Administration of Compatible Agent day 3 [2, 3]: Δ (Δ: Below Additive Effect)
- Compatible Effects of l-OHP and Compatible Agent, Time Lag Administration, Addition Administration of Compatible Agent day 4 [2, 3]: ◯ (◯: Additive Effect)
- Compatible Effects of l-OHP and Compatible Agent, Simultaneous Administration [2, 4]: Δ (Δ: Below Additive Effect)
- Compatible Effects of l-OHP and Compatible Agent, Time Lag Administration, Addition Administration of l-OHP day 2 [2, 5]: ◯ (◯: Additive Effect)
- Compatible Effects of l-OHP and Compatible Agent, Time Lag Administration, Addition Administration of l-OHP day 3 [2, 5]: Δ (Δ: Below Additive Effect)
- Compatible Effects of l-OHP and Compatible Agent, Time Lag Administration, Addition Administration of l-OHP day 4 [2, 5]: ◯ (◯: Additive Effect)
- Compatible Effects of l-OHP and Compatible Agent, Time Lag Administration, Addition Administration of Compatible Agent day 2 [2, 6]: ◯ (◯: Additive Effect)
- Compatible Effects of l-OHP and Compatible Agent, Time Lag Administration, Addition Administration of Compatible Agent day 3 [2, 6]: Δ (Δ: Below Additive Effect)
- Compatible Effects of l-OHP and Compatible Agent, Time Lag Administration, Addition Administration of Compatible Agent day 4 [2, 6]: ◯ (◯: Additive Effect)
- Compatible Effects of l-OHP and Compatible Agent, Simultaneous Administration [2, 7]: Δ (Δ: Below Additive Effect)
- Compatible Effects of l-OHP and Compatible Agent, Time Lag Administration, Addition Administration of l-OHP day 2 [2, 8]: ◯ (◯: Additive Effect)
- Compatible Effects of l-OHP and Compatible Agent, Time Lag Administration, Addition Administration of l-OHP day 3 [2, 8]: ◯ (◯: Additive Effect)
- Compatible Effects of l-OHP and Compatible Agent, Time Lag Administration, Addition Administration of l-OHP day 4 [2, 8]: ◯ (◯: Additive Effect)
